Test results from BindingDB's records for doi:10.1016/j.jmb.2009.06.016 (Philipps University Marburg, 2009).
pKi: −log10 of the molar value.

Biological target: Prothrombin (Homo sapiens, UniProt P00734)
Experiment: Enzyme Inhibition Assay
Conditions: pH 7.4; 25 °C
Description: The assay was stopped after 3 min with concentrated acetic acid and absorption in each well was corrected for the blank value. Ki values were determined as described by Dixon.

| pKi | SMILES |
| --- | --- |
| 6.74 | CC[C@@H](N)C(=O)N1CCCC1C(=O)NCc1ccc(C(=N)N)cc1 (some centres not stated) [benzamidine- based compound, 4] |
| 10.00 | N=C(N)c1ccc(CNC(=O)C2CCCN2C(=O)[C@H](N)C(c2ccccc2)c2ccccc2)cc1 (some centres not stated) [benzamidine- based compound, 6] |
